According to US20220347180A1, “ENHANCING CANCER THERAPY TREATMENT WITH BH3 MIMETICS” (THE REGENTS OF THE UNIVERSITY OF COLORADO, A BODY CORPORATE, priority 2019, published 2022):
“Also recorded” adds a separate entry of the source. Read-outs that look alike come from different tables or passages of the source.

Columns and labels:
[1] = higher doses and more frequently than in the current study; cited from earlier work
[2] = test system: regulatory T cells (Tregs); conditions: cited from earlier work
[3] = test system: MB3447 melanoma line; experiment: ATP viability assay (Cell Titer-Glo); assay type: cell-based; conditions: Homo sapiens; MB3447, Triple WT, 48 h
Description: (§1) Cells were treated for 48 h for viability assays and primary sphere assays.
(§2) ATP viability assay, primary and secondary sphere assays: Cell viability was evaluated via Cell Titer-Glo Luminescent cell viability assay (Promega Corp., Madison, Wis.) according to the manufacturer's protocol. All sphere assays were completed as previously described. The experimental schematic for the primary and secondary sphere assays was described previously. All assays were performed in no less than triplicate for each cell line and repeated at least three times for each line. Drug treatments began 120 h after seeding in the primary sphere assay and 24 h after seeding for the monolayer ATP assay.
(§3) Calculation of IC50 and Combination index (CI) values: IC50 values were calculated from the relative viability results of ATP assays, and were derived by a sigmoidal dose (log)-response (variable slope) curve with GraphPad Prism 8 software. […] This method uses a median-effect equation and Combination-index theorem to calculate synergy between two drugs and identifies the drug interaction as values […]. This is defined as combination-index values (CI values). The program requires entering a series of “dose (D) and effect (fa)” into the program for each drug alone as well as the combination therapy.

[4] = test system: 1205Lu melanoma line; experiment: ATP viability assay (Cell Titer-Glo); assay type: cell-based; conditions: Homo sapiens, BRAFV600E, 48 h
Description: as §1, §2, §3

[5] = test system: MB4667 melanoma line; experiment: ATP viability assay (Cell Titer-Glo); assay type: cell-based; conditions: Homo sapiens; MB4667, NRAS Q61R, acral, 48 h
Description: as §1, §2, §3

[6] = test system: WM852c melanoma line; experiment: ATP viability assay (Cell Titer-Glo); assay type: cell-based; conditions: Homo sapiens, NRAS, 48 h
Description: as §1, §2, §3

[7] = test system: SKMEL-28 melanoma line; experiment: ATP viability assay (Cell Titer-Glo); assay type: cell-based; conditions: Homo sapiens, SK-MEL-28; SKMEL-28, BRAFV600E, 48 h
Description: as §1, §2, §3

[8] = test system: MB1692 melanoma line; experiment: ATP viability assay (Cell Titer-Glo); assay type: cell-based; conditions: Homo sapiens; MB1692, AGK-BRAF, 48 h
Description: as §1, §2, §3

[9] = test system: MB2114 melanoma line; experiment: ATP viability assay (Cell Titer-Glo); assay type: cell-based; conditions: Homo sapiens; MB2114, BRAF V600E, 48 h
Description: as §1, §2, §3

[10] = test system: Hs852T melanoma line; experiment: ATP viability assay (Cell Titer-Glo); assay type: cell-based; conditions: Homo sapiens, WT for BRAF, 48 h
Description: as §1, §2, §3

[11] = test system: A375 melanoma line; experiment: ATP viability assay (Cell Titer-Glo); assay type: cell-based; conditions: Homo sapiens, A-375; A375, BRAFV600E, 48 h
Description: as §1, §2, §3

[12] = test system: MB3429 melanoma line; experiment: ATP viability assay (Cell Titer-Glo); assay type: cell-based; conditions: Homo sapiens, 48 h
Description: as §1, §2, §3

[13] = test system: MB2141 melanoma line; experiment: ATP viability assay (Cell Titer-Glo); assay type: cell-based; conditions: Homo sapiens; MB2141, EML4-ALK, mucosal, 48 h
Description: as §1, §2, §3

[14] = test system: Hs294T melanoma line; experiment: ATP viability assay (Cell Titer-Glo); assay type: cell-based; conditions: Homo sapiens, Hs 294T, WT for BRAF/NRAS, 48 h
Description: as §1, §2, §3

[15] = test system: MB2724 melanoma line; experiment: ATP viability assay (Cell Titer-Glo); assay type: cell-based; conditions: Homo sapiens; MB2724, Triple WT, acral, 48 h
Description: as §1, §2, §3

[16] = test system: MB3616 melanoma line; experiment: ATP viability assay (Cell Titer-Glo); assay type: cell-based; conditions: Homo sapiens; MB3616, NRAS Q61K, 48 h
Description: as §1, §2, §3

[17] = test system: MB3961 melanoma line; experiment: ATP viability assay (Cell Titer-Glo); assay type: cell-based; conditions: Homo sapiens; MB3961, NRAS Q61K, 48 h
Description: as §1, §2, §3

[18] = test system: human melanoma lines; experiment: ATP viability assay, panel of melanoma lines; assay type: cell-based; conditions: single drug, up to 2.5 uM, 48 h
Description: as §1, §2, §3

[19] = test system: tumor-infiltrating immune cells; experiment: Flow cytometry of tumor-infiltrating immune cells, B16 syngeneic model; assay type: in vivo, mouse; conditions: 40 mg/kg, day 10 post tumor implantation
Description: (§4) 2.0×10^5 B16F10 melanoma cells were injected in the flanks of 7-week-old C57BL/6J mice on day 0. MCL1 inhibitors was administered retro-orbitally daily at 40 mg/kg, starting at day 6 post tumor implantation. […] Flow cytometry of tumor-infiltrating immune cells of Veh (vehicle control) and 40 mg/kg MCL1 inhibitor S63845 treated tumors at day 10 post tumor implantation. […] Similar experiments as in a, except with i.p injection. […] 2.0×10^5 B16F10 melanoma cells were injected in the flanks of 7-week-old C57BL/6J mice. MCL1-i was administered through retro-orbital injection daily at 40 mg/kg on days 5-9, and anti-PD1 was injected intraperitoneally at 250 ug on days 7, 11, 14 and 16.
(§5) Tumor volume was measured every 2 days with digital calipers. The following formula was used to calculate tumor volume: tumor volume (mm3)=(length in mm×width in mm2)/2.

[20] = test system: MP41; conditions: MP41 uveal melanoma xenograft
Description: A uveal melanoma cell line, MP41, was used in the xenograft study, and tumor volume Panel (a) and weight of the mice Panel (b) were measured.
The viability of the DMSO control for each cell line was set to 100%. Panel (c) A uveal melanoma line, MP41, was used in the xenograft study, and tumor volume and weight of the mice were measured.
Drug treatments started when the tumors were palpable. Treatment groups consisted of randomly divided mice of at least 8 tumors each group. All drugs were prepared according to the manufacturer's protocol, or previously described. S63845 was administered at 25 mg/kg twice weekly. […] The tumor samples were collected at the end of the experiment for further studies.

[21] = test system: A375 cells; experiment: Viability of A375 cells with BCL2 or MCL1 knockdown; assay type: cell-based, human; conditions: A375, 48 h
Source text: (a and b) Comparison between two genotypic groups: BRAF-hotspot mutated (MUT) (n=110) and BRAF-WT (WT) (harboring RAS hotspot mutated, any NF1 mutated, and triple wild type n=122). Panel (a) mRNA expression values for BCL2, CASP8, PDCD4, and MCL1. Panel (b) Relative RPPA protein expression values for PDCD4, CASP8, and BCL2. MCL1 was not included on the RPPA panel. Each dot represents an individual sample, and the horizontal line represents the mean. Panels (c) and (d) show the effects of BCL2 or MCL1 knockdown in A375 cells. Cells were treated with the indicated drugs for 48 h. […] Error bars represent +/−SEM.
Creation of short hairpin RNA transduced cell lines and CRISPR/Cas9-mediated BIM knockout cell lines: ShRNA lentiviral particles (Santa Cruz Biotechnology, Dallas, Tex.) were used to construct stable cell lines as previously described. BIM-knockout lines were generated using CRISPR/Cas9 technology, as previously described.

[22] = test system: B16F10 melanoma cells; assay type: in vivo; conditions: retro-orbitally daily at 40 mg/kg from day 6 post implantation
Description: as §4, §5
Tumor volume was measured every 2 days with digital calipers.

SMILES	IC50 [3]	IC50 [4]	IC50 [5]	IC50 [6]	IC50 [7]	IC50 [8]	IC50 [9]	IC50 [10]	IC50 [11]	IC50 [13]	IC50 [14]	IC50 [15]	IC50 [16]	IC50 [17]	other results
Cc1c2c(nn1C)CSCc1cc(n(C)n1)CSc1cc(c3ccccc3c1)OCCCc1c(C(=O)O)n(C)c3c-2c(Cl)ccc13 [AZD5991]															toxicity [1]: Minimal toxicity
COC1=CC(c2cc3ccccc3[nH]2)=N/C1=C\c1[nH]c(C)cc1C [GX15-070]															cell death of regulatory T cells [2]: preferentially induces cell death
CC1(C)CCC(CN2CCN(c3ccc(C(=O)NS(=O)(=O)c4ccc(NCC5CCOCC5)c([N+](=O)[O-])c4)c(Oc4cnc5[nH]ccc5c4)c3)CC2)=C(c2ccc(Cl)cc2)C1 [ABT-199, venetoclax]	> 10 µM	> 10 µM	7.69 µM	> 10 µM	> 10 µM	> 10 µM	> 10 µM	8.8 µM	> 10 µM	> 10 µM	> 10 µM	> 10 µM	9.69 µM	> 10 µM	IC50 ([12]; MB3429, BRAF G596C, GNA11 R183C, read-out: IC50): 3.91 µM
Cc1c(-c2c(-c3ccc(F)o3)sc3ncnc(O[C@H](Cc4ccccc4OCc4ccnn4CC(F)(F)F)C(=O)O)c23)ccc(OCCN2CCN(C)CC2)c1Cl [S63845]	5.49 µM	7.2 µM	> 10 µM	7.81 µM	4 µM	7.42 µM	> 10 µM	6.14 µM	6.33 µM	2.67 µM	2.9 µM	3.24 µM	8.11 µM	2.91 µM	effect on cell viability [18]: little effect on cell viability; frequency of MDSCs in tumors [19]: drastically decreased; frequency of tumor-infiltrating CD8+ T cells [19]: increased; mouse weight [20]: without affecting mouse weight; tumor growth (tumor volume) [20]: significantly inhibited uveal melanoma tumor growth; sensitivity after BCL2 knockdown (shBCL2) [21]: sensitized cells; IC50 [12]: 8.85 µM; tumor growth [22]: blocked tumor growth; also recorded: inhibited tumor growth curve
